Test results reported in PMC4091617 (Chemical communications (Cambridge, England), 2011).

Target: T1, DhpI (Streptomyces luridus, UniProt D7PC21)
T1 sequence (D7PC21 1-218): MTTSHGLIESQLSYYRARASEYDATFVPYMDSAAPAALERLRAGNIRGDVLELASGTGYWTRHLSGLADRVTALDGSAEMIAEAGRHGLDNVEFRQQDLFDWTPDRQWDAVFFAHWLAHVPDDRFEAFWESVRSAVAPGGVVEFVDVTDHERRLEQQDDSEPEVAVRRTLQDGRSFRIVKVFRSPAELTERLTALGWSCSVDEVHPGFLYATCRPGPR
Assay: in vitro O-methylation
Assay type: biochemical
Details: SAM as methyl donor; Pfs present

SMILES: CC(=O)N(O)CCCP(=O)(O)O [FR-900098]
- in vitro O-methylation: These four phosphonates were used as the basis; each was methylated by DhpI
